Values quoted from earlier work as cited in patent publication US20120237592A1, “ENDOPLASMIC RETICULUM TARGETING LIPOSOMES” (priority 2008, published 2012).

How the values were obtained:
[1] = test system: HIV; conditions: literature
[2] = test system: BVDV; conditions: literature
[3] = test system: HIV-1; conditions: HIV-1 infected patients, literature
[4] = test system: HBV; conditions: literature

## CCCCN1C[C@H](O)[C@@H](O)[C@H](O)[C@H]1CO [NB-DNJ, N-butyl-1,5-dideoxy-1,5-imino-D-glucitol]
[1]
  infectious virus released from HIV-infected cells: greatly reduced
[2]
  infectivity of BVDV viral progeny: decreased infectivity of viral progeny
[3]
  tolerability at concentrations necessary for antiviral activity: serious side-effects
[4]
  secretion of HBV particles: suppresses secretion of HBV particles
